Key:
Format in all cases: in vivo
tomatoes = assay: Tomato pot study with sebacic acid (high heat, light and water stress)
Procedure: A tomato pot study was conducted with sebacic acid to determine the activity of sebacic acid in increasing tolerance to abiotic stress. The tomatoes were grown in a standard medium in pots and subjected to the abiotic stresses of high heat, light, and water stress. Growth of the plants was used as a measure of the ability of the sebacic acid to reduce the impact of abiotic stress. Growth measurements were taken 32 days after treatment with sebacic acid

citrus = assay: Citrus field trial (heat, light and/or water stress), Cobram, Victoria
Procedure: (§1) Field trials were carried out in parts of commercial orchards or fields in Australia during the 2009-2010 season. Crops were evaluated for specific parameters impacted by abiotic stress including fruit diameter, fruit number, amount of sunburn damage and number of flowers aborted. The crops evaluated were apple, citrus, tomato and wine grape. […] Heat and light stress occurred early during the trials, with exposures to 40° C.^+ temperatures in November; about 4-6 weeks after the trials were initiated. This period of stress was followed by varied temperatures including temperatures that were in the mid-to-high 30° C. range.
(§2) The foliage and fruit for each crop were assessed prior to treatment and then at regular intervals through the season for any signs of phytotoxicity. No phytotoxicity was observed on either the foliage or the fruit for any of the applied formulations for any of the crops. In addition, all trials were determined to be disease and pest free.
(§3) Screen (kaolin), Screen Duo (kaolin and salicylate), Surround (kaolin) and Parasol (calcium carbonate) are standard treatments used in the management of heat, light and water stress. Kaolin and calcium carbonate reduce stress by reflecting UV, visible, and infrared radiation, thereby reducing the impact of excess heat and light on photosynthesis and other cellular processes.
(§4) The citrus and apple trials received four and five applications, respectively, of the various formulations, set forth in Table 1 (below), prior to experiencing abiotic stress. Tomatoes received biweekly applications of the treatments throughout the trial.
In general, a lower fruit load results in greater fruit diameter at harvest. Early season differences in fruit diameter are due to variation in cell division. It is well documented that at equal fruit load, heat stress will result in smaller fruit (i.e., reduced fruit diameter). In addition, heat, light, and/or water stress can also result in fruit number losses, commonly known in citrus as “June drop.” Past studies indicate that protecting the crop with Screen/Duo starting at petal fall can result in larger fruit and higher numbers of fruit, most likely by reducing the crop temperature and reducing stress signaling reactive oxygen (ROX).
The trial described below was conducted in Cobram, Victoria, Australia. Several parameters were measured as responses to heat, light and/or water stress: early citrus fruit diameter, number of fruit per cubic meter foliage, percent sunburn, later season fruit diameter and kilograms of fruit per cubic meter foliage. Sunburn damage is the late stage result of combined heat and light stress. […] There was little correlation observed between fruit number and fruit size (correlation […]).

apple = assay: Apple field trial (heat, light and/or water stress), Shepparton, Victoria
Procedure: as §1, §2, §3, §4
As described above for citrus, early season heat, light and/or water stress can also impede cell division that occurs during Phase I of fruit development of apples. In the apple trial, which was conducted in Shepparton, Victoria, Australia, the load of fruit on each of the trees was thinned to an approximately equal value (approximately 200 fruit per tree; +/−5%), thus eliminating the confounding effect of fruit load on fruit diameter. To assess sunburn/heat stress damage, all apples were harvested from the center tree in each plot and rated according to the following rating system.
Rating Visual Assessment of the Fruit
1 Slight yellowing on the exposed side (<5% of the fruit area)
2 Noticeable yellowing on the exposed side (>5% of the fruit area)
3 Moderate sunburn with pronounced lenticels (fruit unmarketable)
4 Significant sunburn (fruit unmarketable)

wine grape = assay: Wine grape field trial (sunburn/heat stress, yield), Kialla, Victoria
Procedure: as §1, §2, §3
The trial described below was conducted in Kialla, Victoria, Australia. The trial design was a randomized complete block with four replicates. Each plot comprises one panel of vines having four vines. For yield measurements the grapes were harvested from each of the two center vines in each panel and bunch numbers and weights were recorded. For assessment of sunburn/heat stress damage, the bunches of grapes were rated according to the following system: […]

tomato = assay: Tomato field trial (flower abortion, sunburn, yield), Echuca, Victoria
Procedure: as §1
The foliage and fruit for each crop were assessed prior to treatment and then at regular intervals through the season for any signs of phytotoxicity.
Kaolin and calcium carbonate reduce stress by reflecting UV, visible, and infrared radiation, thereby reducing the impact of excess heat and light on photosynthesis and other cellular processes.
as §4
Flower abortion in tomato results in significant yield losses in tomato and begins at temperatures of 28 C, becoming more severe as temperatures rise. Further, once fruit has developed, it is susceptible to damage from heat and light, expressed as sunburn.
In the present study, tomatoes, located in a commercial field outside Echuca, Victoria, Australia, were treated with azeleic acid (CMM2009A). The number of aborted flowers per plot was assessed periodically during the season. Tomato yield and sunburn damage was assessed as follows. Tomatoes from the center of each plot were harvested from a one meter section of the tomato beds. The fruit was visually assessed as being either red in color and suitable for processing, green in color, or sun burnt. The fruit from these three categories were kept separate, weighed and recorded.

Tomato plants = assay: Tomato pot trial, heat and light stress in the greenhouse; conditions: for Avg. growth in cm. (tomato fruits exposed to heat and light stress): April 2-May 10; for Avg growth in cm. (tomato fruits exposed to heat and light stress): April 2-May 18
Procedure: Tomato plants were exposed to heat and light stress in the greenhouse. Control plants had no treatment or were treated with Screen, Screen Plus1, Screen Plus2, or Screen Plus3, The experimental plants were treated with azelaic acid at 10^−4 M or 10^−3 M applied alone or in combination with Screen, Screen Plus1, Screen Plus2, or Screen Plus3.

[1] = citrus, versus standard treatments
[2] = apple field trial, rates per Table 3
[3] = wine grape field trial, 10 Mar. 2010, four applications
[4] = azelaic at 10^−4M where applied, Screen applications at rate equivalent of 25 kg/ha

## sebacic acid (decanedioic acid)
tomatoes; tomato plants in pots, 1 × 10−4M, 32 days after treatment, high heat, light and water stress
  Growth (mm): 25.3 mm
tomatoes; tomato pot trial, Table 7
  Growth compared with the untreated plants (in words): statistically significant greater growth

## O=C(O)CCCCCCCC(=O)O [Azeleic acid, azelaic acid (nonanedioic acid)]
citrus; citrus field trial, 6 Jan. 2010, per cubic meter foliage, four applications, rates per Table 2
  Fruit Number per cubic meter: 10.62 per cubic meter
citrus; citrus field trial, 12 Apr. 2010 (later season), four applications, rates per Table 2
  Fruit Diameter (mm): 71.59 mm
citrus; citrus field trial, 14 Dec. 2010 (early fruit diameter), four applications, rates per Rate column of Table 2
  Fruit Diameter (mm): 29.49 mm
citrus; citrus field trial, 28 Jan. 2010, four applications, rates per Table 2
  Percent Sunburn: 5.6%
citrus; citrus field trial, 29 Sep. 2010, kilograms of fruit, four applications, rates per Table 2
  kgs/cubic meter of foliage: 3.8 kgs/cubic meter of foliage
citrus; citrus, azelaic acid alone versus Screen, Screen Duo, Surround and Parasol
  Protecting cell division, as measured by early fruit diameter (in words): as effective as the standard treatments
citrus; [1]
  Protection from sunburn damage (in words): equal to that obtained using the standard treatments
  Reducing fruit loss (in words): as effective in reducing fruit loss
apple; apple field trial, 12 Dec. 2010, fruit load thinned to approx. 200 fruit per tree, rates per Table 3
  Fruit Diameter (mm): 39.84 mm
apple; apple field trial, 16 Feb. 2010, 1&2 are export grade or commercially acceptable grade apples, rates per Table 3
  % Fruit Sunburn 1&2: 87.4%
apple; apple field trial, 17 Mar. 2010, rates per Table 3
  Yield kg/tree: 42.8 kg/tree
apple; [2]
  Apple Size g/apple: 152 g/apple
  Marketable Yield kg/tree: 37.4 kg/tree
apple; apple, alone or in combination with kaolin, salicylate, glycine betaine, or multiples thereof
  Protecting cell division as measured by fruit diameter, percent sunburn, apple size, yield and marketable yield (in words): as effective as the standard treatments
Wine grape; wine grape field trial, 10 Mar. 2010, average weight of a bunch, four applications
  Bunch Weight (grams): 94.7 grams
Wine grape; [3]
  Yield kg/ha: 9230 kg/ha
  Yield kg/vine: 3.6 kg/vine
Wine grape; wine grape field trial, 10 Mar. 2010, rating 1 = 0%, 2 = 1-5% incidence of sunburn/heat stress on bunches, four applications, rates per Table 6
  % Bunches Rating 1 + 2: 96.8%
Wine grape; wine grape, alone or in combination with salicylate, kaolin, or combinations thereof
  Protection from heat, water and light stress (bunch rating, yield, bunch weight; in words): equivalent to or better than the standard treatments
tomato; 12 Mar. 2010, red fruit suitable for processing, ten applications
  Yield Red MT/ha: 131 MT/ha
tomato; 12 Mar. 2010, sun burnt fruit, ten applications
  Yield Sunburn MT/ha: 6.6 MT/ha
tomato; 12 Mar. 2010, ten applications
  Soluble Solids MT/ha: 6.2 MT/ha
  Total Yield MT/ha: 137.6 MT/ha
tomato; 20 Feb. 2010, ten applications, rates per Table 4
  Number Sunburn Fruit per plot: 21.3 per plot
tomato; 20 Jan. 2010, ten applications, rates per Table 4
  Aborted Flowers per sq m of the plot: 5 per sq m of the plot
tomato; alone or in combination with salicylate, kaolin, glycine betaine
  Protection from sunburn damage (in words): equivalent to or better than the standard treatments
tomato; versus standard treatments
  Number of flowers aborted (in words): reduce the number of flowers aborted to the same degree as the standard treatments
Tomato plants; azelaic at 10^−3M, no Screen
  Avg. growth in cm. (tomato fruits exposed to heat and light stress): 8.0 cm
  Avg growth in cm. (tomato fruits exposed to heat and light stress): 6.1 cm
Tomato plants; [4]
  Avg. growth in cm. (tomato fruits exposed to heat and light stress): 11.0 cm
  Avg growth in cm. (tomato fruits exposed to heat and light stress): 8.7 cm
Tomato plants; tomato pot trial, azelaic acid at 10^−4 M
  Protection from the abiotic stress as measured by average fruit size (in words): equivalent to or better than the standard treatments

Reference: US10136641B2, “Methods for increasing tolerance to abiotic stress in plants” (Crop Microclimate Management Inc., priority 2010, dated 2018)
